Consider three molecules from patent publication US12680083B2, “Media for culturing naive human pluripotent stem cells” (Yeda Research and Development Co. Ltd., priority 2014, dated 2026).

For test [1], the system named is WIBR3 hESCs with ESRRB mCherry knock-in reporter. Briefly: FACS analysis of ESRRB-mCherry knock-in reporter. Format: cell-based, human. The text has this:
FIGS. 26A-C depict the targeting human ESRRB (a gene/transcription factor) locus with knockin mCherry fluorescent reporter. FIG. 26A-Targeting scheme is illustrated. Scissors indicate CRISPR-sgRNA cut site. In order to create mCherry reporter co-expressed with endogenous human ESRRB locus, the present inventors have chosen to knock in p2a-mCherry coding sequence in frame with the last exon of the human ESRRB gene. The present inventors have inserted oligos specific for the stop codon region of ESRRB gene into px335 plasmid which encodes CAS9 nickase and sgRNA. The present inventors have targeted WIBR3 human ESC OCT4 GFP knockin cell line. The efficiency of the targeting was about 30% (15 out of 48 clones) as verified by external PCR. Correct targeting was also verified by Southern Blot (SB) with external and anti-mCherry probes (FIG. 26B). After Neo cassette excision with Flippase, the whole targeted locus from one of the clones was amplified and sequenced. Clones 2-6 were correctly targeted (FIG. 26C).
FIGS. 26D-H are FACS analyses depicting expression of ESRRB-mCherry reporter in PSCs.

For test [2], the target named is PKCα (Homo sapiens, UniProt P17252). The settings on record: cited from earlier work.
Test [3] concerns the target PKCβ (Homo sapiens, UniProt P05771). Particulars: cited from earlier work.
The target in test [4] is PKCγ (Homo sapiens, UniProt P05129). The settings on record: cited from earlier work.
For test [5], the target named is PKCδ (Homo sapiens, UniProt Q05655). The settings on record: cited from earlier work.
Sequence of PKCδ (Q05655 whole entry): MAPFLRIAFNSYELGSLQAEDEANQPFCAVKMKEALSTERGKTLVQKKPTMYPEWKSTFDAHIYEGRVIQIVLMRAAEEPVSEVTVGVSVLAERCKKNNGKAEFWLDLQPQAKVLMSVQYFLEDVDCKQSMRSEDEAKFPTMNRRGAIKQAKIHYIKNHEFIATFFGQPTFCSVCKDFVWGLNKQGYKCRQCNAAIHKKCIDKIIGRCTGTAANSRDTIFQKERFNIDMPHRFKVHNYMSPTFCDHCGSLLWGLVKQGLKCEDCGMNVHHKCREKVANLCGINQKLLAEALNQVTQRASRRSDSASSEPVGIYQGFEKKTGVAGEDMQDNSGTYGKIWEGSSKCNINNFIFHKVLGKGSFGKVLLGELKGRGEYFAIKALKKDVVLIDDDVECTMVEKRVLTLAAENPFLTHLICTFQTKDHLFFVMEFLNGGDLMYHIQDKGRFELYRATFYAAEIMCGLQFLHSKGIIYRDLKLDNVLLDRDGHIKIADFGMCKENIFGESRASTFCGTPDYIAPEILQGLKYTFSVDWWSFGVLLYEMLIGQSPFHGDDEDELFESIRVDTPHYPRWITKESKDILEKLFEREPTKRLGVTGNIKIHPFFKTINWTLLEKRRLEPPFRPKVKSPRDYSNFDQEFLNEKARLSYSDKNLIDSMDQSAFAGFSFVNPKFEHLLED
The target in test [6] is T1, PKCζ (Homo sapiens, UniProt Q05513).
T1 sequence (Q05513 1-592): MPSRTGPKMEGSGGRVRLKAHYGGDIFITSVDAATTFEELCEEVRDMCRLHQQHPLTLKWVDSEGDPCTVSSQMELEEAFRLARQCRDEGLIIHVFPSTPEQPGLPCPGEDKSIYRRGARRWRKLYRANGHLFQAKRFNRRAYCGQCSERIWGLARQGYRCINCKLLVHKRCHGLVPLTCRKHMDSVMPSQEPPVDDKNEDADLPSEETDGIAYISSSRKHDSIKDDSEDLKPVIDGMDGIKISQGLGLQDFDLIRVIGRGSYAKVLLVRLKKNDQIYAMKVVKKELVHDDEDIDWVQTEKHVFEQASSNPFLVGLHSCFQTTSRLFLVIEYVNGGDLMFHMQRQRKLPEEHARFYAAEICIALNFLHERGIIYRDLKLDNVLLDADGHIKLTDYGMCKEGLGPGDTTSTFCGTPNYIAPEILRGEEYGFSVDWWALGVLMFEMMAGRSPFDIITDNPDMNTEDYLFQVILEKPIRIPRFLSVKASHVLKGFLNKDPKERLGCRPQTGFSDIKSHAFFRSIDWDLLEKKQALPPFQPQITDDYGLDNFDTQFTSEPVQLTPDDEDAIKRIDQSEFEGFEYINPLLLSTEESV
The settings on record: cited from earlier work.

The target of test [7] is T2, PKCμ (Homo sapiens, UniProt Q15139).
T2 sequence (Q15139 1-912): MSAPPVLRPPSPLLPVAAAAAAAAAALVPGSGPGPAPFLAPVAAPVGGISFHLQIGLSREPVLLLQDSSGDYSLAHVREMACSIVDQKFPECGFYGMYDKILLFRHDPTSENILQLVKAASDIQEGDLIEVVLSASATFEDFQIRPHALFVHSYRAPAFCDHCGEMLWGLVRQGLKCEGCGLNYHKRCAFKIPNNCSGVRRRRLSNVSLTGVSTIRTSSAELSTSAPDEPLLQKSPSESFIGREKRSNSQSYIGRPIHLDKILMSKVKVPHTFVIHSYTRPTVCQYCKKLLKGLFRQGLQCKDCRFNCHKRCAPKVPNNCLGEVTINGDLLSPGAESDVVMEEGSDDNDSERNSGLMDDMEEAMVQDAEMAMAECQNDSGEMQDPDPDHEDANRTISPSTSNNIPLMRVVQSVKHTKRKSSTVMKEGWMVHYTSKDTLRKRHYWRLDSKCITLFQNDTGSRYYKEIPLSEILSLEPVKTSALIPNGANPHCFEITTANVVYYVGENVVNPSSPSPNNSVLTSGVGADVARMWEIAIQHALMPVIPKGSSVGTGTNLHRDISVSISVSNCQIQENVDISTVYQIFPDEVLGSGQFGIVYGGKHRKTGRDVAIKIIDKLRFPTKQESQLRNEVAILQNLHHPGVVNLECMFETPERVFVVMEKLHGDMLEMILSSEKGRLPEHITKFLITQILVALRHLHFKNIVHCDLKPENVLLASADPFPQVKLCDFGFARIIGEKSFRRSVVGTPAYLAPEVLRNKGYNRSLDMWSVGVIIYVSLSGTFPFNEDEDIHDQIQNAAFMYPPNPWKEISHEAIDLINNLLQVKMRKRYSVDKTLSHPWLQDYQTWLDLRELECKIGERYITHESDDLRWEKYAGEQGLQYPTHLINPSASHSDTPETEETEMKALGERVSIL
The settings on record: cited from earlier work.

Sequence of PKCβ (P05771 whole entry, species assumed): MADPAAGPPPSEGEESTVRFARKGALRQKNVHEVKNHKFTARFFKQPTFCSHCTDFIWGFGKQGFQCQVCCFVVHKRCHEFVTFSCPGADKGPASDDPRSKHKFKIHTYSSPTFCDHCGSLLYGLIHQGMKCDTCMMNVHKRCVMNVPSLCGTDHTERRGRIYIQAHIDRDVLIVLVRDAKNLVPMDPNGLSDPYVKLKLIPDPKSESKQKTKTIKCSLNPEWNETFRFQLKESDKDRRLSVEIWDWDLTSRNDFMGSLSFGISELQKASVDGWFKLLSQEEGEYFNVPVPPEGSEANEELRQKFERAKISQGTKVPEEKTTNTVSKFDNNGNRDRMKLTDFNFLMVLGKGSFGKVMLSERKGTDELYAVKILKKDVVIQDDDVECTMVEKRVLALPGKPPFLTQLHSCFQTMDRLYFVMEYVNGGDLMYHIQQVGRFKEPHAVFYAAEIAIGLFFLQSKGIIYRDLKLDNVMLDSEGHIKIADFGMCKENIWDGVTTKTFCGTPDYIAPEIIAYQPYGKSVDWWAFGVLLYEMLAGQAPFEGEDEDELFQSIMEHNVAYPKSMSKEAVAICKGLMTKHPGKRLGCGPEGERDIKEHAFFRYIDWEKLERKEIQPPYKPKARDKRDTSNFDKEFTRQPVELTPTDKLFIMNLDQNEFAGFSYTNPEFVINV

Regarding `COc1cc2nc(N3CCCN(C)CC3)nc(NC3CCN(Cc4ccccc4)CC3)c2cc1OC` [BIX01294], in test [1] (conditions 136 with BIX01294 removed from the culture medium), the “ESRRB mCherry expression” value was “this effect is lost”.

Take `COc1ccc2c(c1)c(C1=C(c3c[nH]c4ccccc34)C(=O)NC1=O)cn2CCCN(C)C` [Go6983]: the IC50 (as a rule, the concentration that inhibits the measured activity by half) in test [2] was 7 nM; in test [3], 7 nM; in test [4] it was 6 nM; in test [5] it was 10 nM; in test [6], 60 nM; in test [7], 20000 nM.

B1: Activin A: also known as Inhibin beta A, INHBA; activator of TGF/ACTIVIN pathway (protein, listed as Homo sapiens)
chain: MPLLWLRGFLLASCWIIVRSSPTPGSEGHSAAPDCPSCALAALPKDVPNSQPEMVEAVKKHILNMLHLKKRPDVTQPVPKAALLNAIRKLHVGKVGENGYVEIEDDIGRRAEMNELMEQTSEIITFAESGTARKTLHFEISKEGSDLSVVERAEVWLFLKVPKANRTRTKVTIRLFQQQKHPQGSLDTGEEAEEVGLKGERSELLLSEKVVDARKSTWHVFPVSSSIQRLLDQGKSSLDVRIACEQCQESGASLVLLGKKKKKEEEGEGKKKGGGEGGAGADEEKEQSHRPFLMLQARQSEDHPHRRRRRGLECDGKVNICCKKQFFVSFKDIGWNDWIIAPSGYHANYCEGECPSHIAGTSGSSLSFHSTVINHYRMRGHSPFANLKSCCVPTKLRPMSMLYYDDGQNIIKKDIQNMIVEECGCS
As for B1, the “ESRRB mCherry expression” value in test [1] (conditions 136 with Activin A added) is reported as “this effect is lost”.
